Reference: article PMC10333884, “Large‐scale phosphomimetic screening identifies phospho‐modulated motif‐based protein interactions” (Molecular Systems Biology, 2023)
Non-standard residues stand in square brackets, D forms with d. Residues, ends and D or L forms follow the SMILES beside them. pT = C[C@@H](OP(=O)(O)O)[C@H](N)C(=O)O; pS = N[C@@H](COP(=O)(O)O)C(=O)O

What was measured:
[1] = system: bait protein domains; test: Phosphomimetic ProP-PD selection against the PM_HD2 library (NGS counts, confidence level, PES), any bait; type: binding, human; set-up: Confidence / Max confidence: scale not given here; conditions: bait ABL1_SH3__P00519_60_121; for Has possible phosphoregulated psite? (PES +2/-2, p<0.01) / Max confidence: hit given as wt version; for Confidence / Promiscuity / Specificity: selection results by peptide
Experimental: Selections using the PM_HD2 phage library were performed as described previously with minor modification to the original protocol. The corresponding tag protein (either GST or MBP) was first used during negative selections. Selections were run for 4 days. • Bait and tag proteins (10–15 μg in 100 μl PBS) were immobilised in 96‐well MaxiSorb plate (NUNC) o.n. at 4°C. • Escherichia coli OmniMax bacteria were grown in 2YT medium supplemented with tetracycline (100 μg/ml) at 37°C and 200 rpm. • Plates with immobilised bait/tag proteins were blocked with 0.5% BSA in PBS for 1 h at 4°C. • Phage library (10 μl/well) was prepared by diluting 10× with PBS and adding one‐fourth of the volume of PEG/NaCl. For phage precipitation, prepared library was incubated for 10 min on ice followed by centrifugation for 10 min at 10,000 × g at 4°C. Phages were resuspended in 0.5% BSA, 0.05% Tween in PBS. • Plates with tag proteins were washed 4× with 0.05% Tween in PBS, and naïve phage library was added to each well (100 μl/well) and the plates incubated for 1 h at 4°C. • Plates with bait protein were washed 4× with 0.05% Tween in PBS, and nonbound phages were transferred from the tag protein plate and the plates incubated for 1 h at 4°C. • Plates were again washed 5× with 0.05% Tween in PBS, and bound phages were eluted with log‐phase OmniMax bacteria (100 μl/well) by incubating for 30 min at 37°C at 200 rpm. • M13K07 helper phage (10^12 cfu/ml) was added to each well and the plates incubated for 45 min at 37°C at 200 rpm. • Amplification took place o.n. by adding the eluted phages to 1.1 ml 2YT media supplemented with kanamycin (25 μg/ml), carbenicillin (50 μg/ml) and 0.3 μM IPTG in a 96‐deep‐well plate and incubating o.n. at 37°C at 200 rpm. • Bacteria were pelleted by centrifugation for 15 min at 1,700 × g at 4°C. The phage supernatant was pH‐adjusted by the addition of 10× PBS and remaining bacteria heat‐inactivated by incubating for 10 min at 60°C. Selections were repeated as described from (5).
Based on the results from phage pool ELISAs, samples from selection Day 3 and 4 were selected for NGS, as described previously (Benz et al, [2022]). • Peptide coding regions were amplified and dual‐barcoded by PCR. 5 μl of the enriched phage pools (50 μl reactions) and a high‐fidelity phusion polymerase (Roche) were used for the PCR reaction. Amplification was confirmed by running the PCR product on 2% agarose gel with a 50 bp ladder. • PCR products (25 μl) were purified with 25 μl of Mag‐bind Total Pure NGS beads and normalised in the same step by taking 10 μl of each reaction after resuspension (Qiagen Elution buffer: 10 mM Tris‐Cl and 0.1 mM EDTA (pH 8.5)) from the beads. • The samples were cleaned up with a PCR purification kit (Qiagen) and subsequently run on a 2% agarose gel, and bands of the correct size (ca. 200 bp) were purified with the QIAquick Gel extraction Kit (Qiagen). From the columns, samples were eluted with 30 μl TE (10 mM Tris–HCl, 1 mM EDTA. pH 7.5) buffer and quantified with Quant‐iT PicoGreen dsDNA Assay Kit. • Samples were sequenced on MiSeq (MSC 2.5.0.5/RTA 1.18.54) with a 151 nt (Read1) setup using “Version3” chemistry. The Bcl to FastQ conversion was performed using bcl2fastq_v2.20.0.422 from the CASAVA software suite.
The processing of sequencing data was performed as described in Ali et al ([2020]). In brief: Pooled results from ~500 selection experiments were demultiplexed by identifying unique combinations of 5′ and 3′ barcodes, sequences with an average quality score of 20 or more were conserved and their adaptors were trimmed, and DNA sequences translated using in‐house custom Python scripts. A table for each experiment was built containing peptide sequences associated with their sequencing counts. […]

[2] = target: T1, KPNA4 ARM Major (Homo sapiens, UniProt O00629); test: FP displacement assay, KPNA4 ARM major pocket; type: binding; conditions: major pocket probe FITC-MYC 5 nM, 50 mM sodium phosphate pH 7.4, room temperature, at least three technical replicates, read-out: KD values ± SEM
T1 construct: 60-487; GST (cleaved yes); made in house; host or cells: Escherichia coli BL21-Gold(DE3)
Experimental: (§1) FP experiments were performed as described previously (Kliche et al, [2021]). Shortly, in order to monitor the binding event, FITC‐labelled peptides were used (excitation 495 nm, emission: 535 nm) and the FP signal was recorded in mP on a SpectraMax iD5 Multi‐Mode Microplate Reader (Molecular Devices) by measuring the emitted light in two angels. The measurements were performed at room temperature and prepared in nonbinding black half area 96‐well microplates (Corning®; 50 μl/well). For measuring direct binding, that is saturation curves, a 1:1 dilution series of protein domain (25 μl/well) was generated in 50 mM sodium phosphate buffer pH 7.4 and the measurement performed with 5 nM FITC‐labelled peptide (25 μl/well). The buffer‐corrected values were subsequently plotted with PRISM and fitted to the quadratic equation (Gianni et al, [2005]).
(§2) The 1:1 dilution series in this experiment was performed with the unlabelled peptide in 50 mM sodium phosphate buffer pH 7.4, so that each well‐contained unlabelled peptide (25 μl) at a certain concentration and pre‐formed complex (25 μl). The KD values of this indirectly monitored binding event were calculated as described previously (Nikolovska‐Coleska et al, [2004]). All measurements were at least in technical triplicates as well as biological duplicates when indicated. An amplitude shift between repeat measurements in the displacement experiments was occasionally observed due to variations in the protein preparations. If that was the case, the “active” protein concentration was back‐calculated according to the quadratic equation from the saturation curves performed in parallel. By comparing the active protein concentrations in the complex between different protein preparations, the amplitude was normalised.

[3] = target: T2, KPNA4 ARM minor (Homo sapiens, UniProt O00629); test: FP displacement assay, KPNA4 ARM minor pocket; type: binding; conditions: minor pocket probe FITC-NCOR2 5 nM, 50 mM sodium phosphate pH 7.4, room temperature, at least three technical replicates, read-out: KD values ± SEM
T2 construct: 60-487; GST (cleaved yes); made in house; host or cells: Escherichia coli BL21-Gold(DE3)
Experimental: as §1, §2

[4] = target: T3, TSG101 UEV (Homo sapiens, UniProt Q99816); test: FP displacement assay, TSG101 UEV; type: binding; conditions: for Kd: read-out: KD values ± SEM; for IC50: Fig 4B, TSG101 UEV, technical triplicates, read-out: IC50 values of displacement curves, with SEM
T3 construct: TSG101_UEV__Q99816_1_145; made in house; host or cells: Escherichia coli BL21-Gold(DE3)
T3 sequence (Q99816 1-145): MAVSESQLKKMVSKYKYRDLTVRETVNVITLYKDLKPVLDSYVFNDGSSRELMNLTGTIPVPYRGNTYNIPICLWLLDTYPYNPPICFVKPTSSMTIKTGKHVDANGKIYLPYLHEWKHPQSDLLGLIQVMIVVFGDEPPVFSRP
Experimental: as §1, §2

[5] = probe FITC-HIV2_Gag 5 nM, 50 mM sodium phosphate pH 7.4, room temperature, at least three technical replicates

T2 sequence (O00629 60-487): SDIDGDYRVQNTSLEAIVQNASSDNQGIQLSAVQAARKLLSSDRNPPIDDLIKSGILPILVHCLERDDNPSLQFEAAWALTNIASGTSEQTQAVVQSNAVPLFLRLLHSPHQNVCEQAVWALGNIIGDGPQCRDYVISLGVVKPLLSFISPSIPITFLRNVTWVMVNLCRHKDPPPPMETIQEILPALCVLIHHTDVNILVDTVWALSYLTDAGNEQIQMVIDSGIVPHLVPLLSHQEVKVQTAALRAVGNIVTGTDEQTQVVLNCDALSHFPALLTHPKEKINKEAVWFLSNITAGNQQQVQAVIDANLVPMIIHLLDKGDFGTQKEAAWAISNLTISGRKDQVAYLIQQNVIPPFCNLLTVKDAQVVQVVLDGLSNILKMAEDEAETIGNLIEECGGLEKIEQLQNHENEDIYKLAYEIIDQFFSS
T1 sequence (O00629 60-487): as above

DAPPHYPPPSTAAASP [listing 1 of 2 here]
Has possible phosphoregulated psite? (PES +2/-2, p<0.01) [1]: yes
Max confidence [1]: 3

PPFSPPPSPRGEVERG
Has possible phosphoregulated psite? (PES +2/-2, p<0.01) [1]: yes
Max confidence [1]: 3

CC(=O)NCC(=O)N[C@@H](C)C(=O)N[C@@H](CO)C(=O)N1CCC[C@H]1C(=O)N[C@@H](C)C(=O)N[C@@H](CC(C)C)C(=O)N[C@@H](CCCCN)C(=O)N[C@@H](CCCNC(=N)N)C(=O)N[C@@H](CO)C(=O)N[C@@H](Cc1c[nH]cn1)C(=O)N[C@@H](CO)C(=O)N[C@@H](CC(=O)O)C(=O)N[C@@H](CO)C(=O)N[C@@H](Cc1ccc(O)cc1)C(N)=O [CDC25A114–125 wt] (Ac-GASPALKRSHSDSY-NH2)
Kd [2]: 8.8 ± 0.2 µM
Kd [3]: 0.2 ± 0.004 µM

LTYPQYSPPQPRPGVI
Has possible phosphoregulated psite? (PES +2/-2, p<0.01) [1]: yes
Max confidence [1]: 4

PATSPPKTPPQLEALQ [listing 1 of 2 here]
Confidence [1]: 3
Promiscuity [1]: 3
Specificity [1]: 0.9995

CSCC[C@H](NC(=O)[C@@H]1CCCN1C(=O)[C@H](CO)NC(=O)[C@H](CC(C)C)NC(=O)[C@@H]1CCCN1C(=O)[C@H](C)NC(=O)[C@@H](NC(=O)[C@@H]1CCCN1C(=O)[C@H](CO)NC(=O)[C@H](CO)NC(=O)[C@H](C)NC(=O)CNC(=O)[C@H](CC(N)=O)NC(=O)[C@H](Cc1ccc(O)cc1)NC(C)=O)[C@@H](C)O)C(=O)N[C@@H](CO)C(=O)N1CCC[C@H]1C(N)=O [GJA1_269–283 wt] (Ac-YNGASSPTAPLSPMSP-NH2)
Kd [4, 5]: 232 ± 16 µM

H3COC-QSIAREPS(pS/E)APSIPTPY-NH2 [PDCD6IP711–725 pS, phosphorylated PDCD6IP 711-725 peptide]
KD values ± SEM [4, 5]: n.b.

CC(=O)N[C@@H](Cc1c[nH]cn1)C(=O)N[C@@H](CO)C(=O)NCC(=O)N[C@@H](CC(N)=O)C(=O)N[C@H](C(=O)N[C@H](C(=O)N1CCC[C@H]1C(=O)N[C@H](C(=O)N[C@@H](C)C(=O)N1CCC[C@H]1C(=O)N1CCC[C@H]1C(=O)N[C@@H](Cc1ccc(O)cc1)C(=O)N[C@@H](CC(C)C)C(=O)N[C@@H](CCC(N)=O)C(=O)N[C@@H](CCC(=O)O)C(=O)N[C@@H](CO)C(N)=O)[C@@H](C)O)[C@@H](C)O)C(C)C [PIP4P2_17–32 wt] (Ac-HSGNVTPTAPPYLQES-NH2)
Kd [4, 5]: 14 ± 1 µM

CC[C@H](C)[C@H](NC(=O)[C@H](CO)NC(=O)[C@H](CCC(N)=O)NC(C)=O)C(=O)N[C@@H](C)C(=O)N[C@@H](CCCNC(=N)N)C(=O)N[C@@H](CCC(=O)O)C(=O)N1CCC[C@H]1C(=O)N[C@@H](CO)C(=O)N[C@@H](C)C(=O)N1CCC[C@H]1C(=O)N[C@@H](CO)C(=O)N[C@H](C(=O)N1CCC[C@H]1C(=O)N[C@H](C(=O)N1CCC[C@H]1C(=O)N[C@@H](Cc1ccc(O)cc1)C(N)=O)[C@@H](C)O)[C@@H](C)CC [PDCD6IP711–725 wt] (Ac-QSIAREPSAPSIPTPY-NH2)
IC50 [4]: 34 ± 10 µM
Kd [4, 5]: 16 ± 3 µM

PATSPPKEPPQLEALQ
Confidence [1]: 2
Promiscuity [1]: 2
Specificity [1]: 0.9898

DAPPHYPPPSTAAASP [listing 2 of 2 here]
Confidence [1]: 2
Promiscuity [1]: 3
Specificity [1]: 0.7461

PATSPPKTPPQLEALQ [listing 2 of 2 here]
Has possible phosphoregulated psite? (PES +2/-2, p<0.01) [1]: yes
Max confidence [1]: 3

PSYSPPDTSPANRSFV
Confidence [1]: 2
Promiscuity [1]: 1
Specificity [1]: 1

DAPPHYPPPSTAAAEP
Confidence [1]: 3
Promiscuity [1]: 4
Specificity [1]: 0.8807

CSCC[C@H](NC(=O)[C@@H]1CCCN1C(=O)[C@H](COP(=O)(O)O)NC(=O)[C@H](CC(C)C)NC(=O)[C@@H]1CCCN1C(=O)[C@H](C)NC(=O)[C@@H](NC(=O)[C@@H]1CCCN1C(=O)[C@H](CO)NC(=O)[C@H](CO)NC(=O)[C@H](C)NC(=O)CNC(=O)[C@H](CC(N)=O)NC(=O)[C@H](Cc1ccc(O)cc1)NC(C)=O)[C@@H](C)O)C(=O)N[C@@H](CO)C(=O)N1CCC[C@H]1C(N)=O [GJA1_269–283 pS] (Ac-YNGASSPTAPL[pS]PMSP-NH2)
IC50 [4]: 420 ± 29 µM
Kd [4, 5]: 209 ± 8 µM

CC(=O)N[C@@H](Cc1c[nH]cn1)C(=O)N[C@@H](CO)C(=O)NCC(=O)N[C@@H](CC(N)=O)C(=O)N[C@H](C(=O)N[C@H](C(=O)N1CCC[C@H]1C(=O)N[C@H](C(=O)N[C@@H](C)C(=O)N1CCC[C@H]1C(=O)N1CCC[C@H]1C(=O)N[C@@H](Cc1ccc(O)cc1)C(=O)N[C@@H](CC(C)C)C(=O)N[C@@H](CCC(N)=O)C(=O)N[C@@H](CCC(=O)O)C(=O)N[C@@H](CO)C(N)=O)[C@@H](C)O)[C@@H](C)OP(=O)(O)O)C(C)C [PIP4P2_17–32 pS] (Ac-HSGNV[pT]PTAPPYLQES-NH2)
IC50 [4]: 34 ± 10 µM
Kd [4, 5]: 16 ± 3 µM

SPPRPPPPPPLLGTVS
Has possible phosphoregulated psite? (PES +2/-2, p<0.01) [1]: yes
Max confidence [1]: 3
